Reference: patent publication US20250320496A1, “MODULATION OF ABCB11 GENE TRANSCRIPTION USING ANTISENSE OLIGONUCLEOTIDES TARGETING REGULATORY RNAS” (CAMP4 Therapeutics Corporation, priority 2022, published 2025)
Strand notation (5' to 3'): a small letter for the sugar, then the base; units joined by * are phosphorothioate-linked, units joined directly phosphodiester-linked; [ ] holds rarer units or linkages, { } end groups; capitals alone tell only the bases. e = 2'-O-(2-methoxyethyl) (MOE); {TEG} = Teg-GalNAc conjugate; [5mC] = 5-methylcytosine

Columns and labels:
[1] = tested on: bile acids; assay: Liver-humanized FRG knockout mice, liver and serum bile acids; format: in vivo, mouse
Description: (§1) In a first in vivo study, female liver-humanized FRG® (Fah^−/−; Rag2^−/−; Il2rg^−/−) knockout mice (Yecuris™) were used to assess the efficacy of the human ABCB11 regRNA-targeting ASOs CO-3986 and CO-4535 in the context of cholestasis. The mice were grouped evenly based on albumin and body weight.
A. First Study. Two groups of five mice were dosed with GalNAc3—CO-7378 (CO-3986 conjugated to GalNAc3) or GalNAc3—CO-7379 ([…]) respectively, control via subcutaneous (SC) injection on Days 0 and 7. One group of five mice was dosed with PBS control via SC injection on Days 0 and 7. A fourth group of five mice was treated with ursodeoxycholic acid (UDCA) via intraperitoneal (IP) injection on Days 14-21. […] On Day 21, the animals were euthanized for terminal harvest after fasting overnight and >350 μL of whole blood was processed to serum. 100 μL of whole blood was collected in the same manner as the previous bleeds, prior to euthanasia and final exsanguination. Harvested livers were perfused with cold PBS with the left lobe and remnant liver frozen separately after bile salt collection. A piece of the ileum tissue was removed and flushed with PBS and snap-frozen. The serum (two tubes for each animal, 15 μL and 25 μL, for each timepoint) was analyzed using LC-MS (Creative Proteomics) to assess bile acids and 7αC4 levels. The remaining samples collected were analyzed for total serum bile acid levels using a commercial kit.
(§2) B. Second Study. In a second in vivo study was conducted to assess the ability of CO-11202 (CO-12367 conjugated with GalNAc3). Mice were dosed with […] on Days 0 and 7 via SC injection. One group of five mice were dosed with PBS control via SC injection on Days 0 and 7. One group of five mice received 10 mg/kg of obeticholic acid (OCA) via oral gavage daily for 21 days. Fasting blood was collected from the mice on Days 0, 7, 14 and 21 (collection performed prior to any SC injections) and processed to serum to analyze bile acid levels. On Day 21, mice were euthanized and livers and ileum tissue harvested and processed as described above.
(§3) Frozen liver pieces were pulverized on dry ice and RNA extracted using TRIzol™ reagent. cDNA was generated and analyzed using qPCR to detect ABCB11 mRNA levels and other genes of interest as described above. Serum 7αC4 levels were detected using LC-MS (Creative Proteomics). Total serum bile acids were measured using the Total Bile Acid Fluorometric Assay Kit (Cell BioLabs). Liver bile acids were measured using the Total Bile Acid Fluorometric Assay Kit.

[2] = tested on: human ABCB11 mRNA; assay: Liver-humanized FRG knockout mice, human ABCB11 mRNA in liver by qPCR; format: in vivo
Description: as §1
A. First Study. Two groups of five mice were dosed with GalNAc3—CO-7378 (CO-3986 conjugated to GalNAc3) or GalNAc3—CO-7379 ([…]) respectively, control via subcutaneous (SC) injection on Days 0 and 7. One group of five mice was dosed with PBS control via SC injection on Days 0 and 7. […] The serum (two tubes for each animal, 15 μL and 25 μL, for each timepoint) was analyzed using LC-MS (Creative Proteomics) to assess bile acids and 7αC4 levels. The remaining samples collected were analyzed for total serum bile acid levels using a commercial kit. […]
as §3

[3] = tested on: CYP7A1 mRNA; assay: ASO treatment of primary human hepatocytes (PHH), CYP7A1 mRNA by RT-qPCR normalized to B2M; format: cell-based
Description: Primary human hepatocytes (PHH) were thawed using Lonza Human Cryopreserved Hepatocyte Thawing Medium and plated in 96-well collagen-coated plates (5.5-6.0×10^4 cells per well). Four hours later, the media was replaced with sterile-filtered QualGro™ Hepatocyte Culture Medium (BioIVT) containing antibiotic supplement, 0.3 mg/ml Matrigel® matrix (Corning®), and ASO at the desired concentration (e.g., 1.25 μM, 2.5 μM, 5 μM, or 10 μM). […] Plates were frozen at-80° C. during cell lysis. After thawing, total RNA was isolated using the Qiagen RNEasy kit as instructed by manufacturer. cDNA (random-primed) was synthesized from 10 μl of RNA using the LifeTech High Capacity cDNA Reverse Transcription kit. 2 μl of cDNA was used for reverse transcription-quantitative PCR (RT-qPCR) analyses using standard Taqman” reagents from Applied Biosystems™ to measure ABCB11 and CYP7A1 gene expression. Gene expression data was normalized to the housekeeper gene, beta-2-microglobulin (B2M).
ASOs targeting ABCB11 regRNA enhance bile acid efflux in vitro. Levels of cholesterol 7 alpha-hydroxylase (CYP7A1) mRNA (or the enzymatic activity of its protein) can be used to track changes in bile acid synthesis in the liver since the CYP7A1 protein is the first and rate-limiting step in the conversion of cholesterol to bile acids (see, e.g., Chiang and Ferrel (2020) Liver Res. 4 (2): 47-63). […] Conversely, when bile acid levels reach high levels, this gene is actively down regulated. These changes are mediated by farnesoid X receptor (FXR), a sensor of bile acid levels, and the master regulator of intracellular bile acid concentrations. CYP7A1 mRNA can therefore be used as a surrogate for monitoring changes in hepatic bile acids in response to ASO treatment. Accordingly, an ASO that successfully increases ABCB11 expression would be expected to promote increased bile acid efflux, thus reducing bile acid levels in the cell. In a wild-type (non-disease) setting, this reduction promotes a compensatory increase in CYP7A1 to restore normal levels.

[4] = tested on: bile acid efflux in PHHs; assay: In vitro biliary clearance assay (B-CLEAR) in PHHs, d8-TCA by LC-MS; format: cell-based, human
Description: The ACCULIVER™ Human Biliary Clearance Kit (also known as the B-CLEAR® assay; BioIVT) was used to assess bile acid efflux in PHHs after ASO treatment. On Day 0, 4×10^5 cells were plated in 24-well collagen-coated plates and QualGro medium containing […] matrix and ASO was added 4 hrs. later. On Day 2, medium was refreshed. On Day 3, cells from some wells were harvested for RNA analysis using 350 μl Buffer RLT lysis buffer, and lysates frozen at −80° C. for later RNA extraction. On Day 4, cells in the remaining wells had medium refreshed. On Day 6, the assay was performed according to the manufacturer's instructions. Briefly, cells were conditioned with Plus or Minus Buffers provided with the assay for 10 minutes, followed by addition of deuterium-labelled sodium taurocholate (d8-TCA) for 10 mins. Cells were washed 3 times, and frozen after the final wash. Analysis of d8-TCA was performed using liquid chromatography-mass spectrometry (LC-MS) (BioIVT). Calculations of bile acid clearance were made from the resulting LC-MS data according to the manufacturer's instructions.

[5] = tested on: human ABCB11 mRNA; assay: ASO treatment of primary human hepatocytes (PHH), ABCB11 mRNA by RT-qPCR normalized to B2M; format: cell-based; parameters: ABCB11 mRNA, dose titration: unit of the concentration uncertain
Procedure, shortened: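 ABCB11 mRNA was quantified by Taqman RT-qPCR relative to B2M and expressed as fold over untreated cells. Cells were cryopreserved primary human hepatocytes given ASO in Matrigel-supplemented medium 4 h after plating, at 1.25, 2.5, 5 or 10 μM (5 μM for screening), and harvested after 72 hrs.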

[6] = tested on: mouse Abcb11 mRNA; assay: Liver-humanized FRG knockout mice, mouse Abcb11 mRNA in liver; format: in vivo; details: second study, liver-humanized FRG knockout mice (FIG. 15A)
Description: as §2, §3

Row | Substance | liver bile acid efflux ([1]; first study, liver-humanized FRG knockout mice) | ratio of liver bile acid (BA) to serum BA ([1]; first study, liver-humanized FRG knockout mice (FIG. 9B)) | intracellular bile acids ([1]; first study, liver-humanized FRG knockout mice, ASO-treated mice) | human ABCB11 expression ([2]; first study, SC on Days 0 and 7) | expression of CYP7A1 mRNA, dose response ([3]; PHHs (FIG. 3B)) | CYP7A1 expression ([3]; PHHs of the B-CLEAR experiment (FIG. 7B)) | intracellular and extracellular bile acid levels ([4]; 5 μM and 10 μM ASO, bile acid efflux assay (FIG. 7C)) | efflux of bile acids from the intracellular compartment to the bile cannuliculi ([4]; B-CLEAR assay) | ABCB11 expression (duplicate wells, qRT-PCR) ([5]; PHHs of the B-CLEAR experiment, dose response (FIG. 7A)) | upregulation of ABCB11 mRNA ([5]; PHHs, Day 3, normalized to untreated PHHs) | ABCB11 mRNA, dose titration ([5]; PHHs, CO-3986 and CO-4529 tested at 2.5 (unit uncertain), 5 μM, and 10 μM) | ABCB11 mRNA FC (5 μM ASO vs. UNT) ([5]; primary human hepatocytes, 5 μM ASO, normalized to untreated PHHs (UNT)) [fold change] | serum bile acid levels ([1]; second study, liver-humanized FRG knockout mice (FIG. 15B)) | human ABCB11 expression ([2]; second study, 10 mg/CO-12367 SC on Days 0 and 7) | mouse Abcb11 expression [6]
1 | CO-3986: ASO targeting paRNA RR63 of human ABCB11 (antisense eT*eG*eT*eT*eT*eT*eG*e[5mC]*eT*eT*eG*eG*eT*e[5mC]*eA*eA*eG*eA*eG*eG) | increased efflux of bile acid | decreased ratio of liver bile acid (BA) to serum BA | lower levels of intracellular bile acids | increased human ABCB11 expression | increased expression of CYP7A1 mRNA in a dose-dependent manner | upregulated | reduced intracellular and extracellular bile acid levels | increased | increased ABCB11 expression | approximately 1.5 fold | dose-dependent increase | 1.27 | – | – | –
2 | CO-12367: GalNAc3 conjugate counterpart of CO-11202, dosed SC in liver-humanized mice (antisense eT*eG*eTeT*eT*eT*eG*e[5mC]eT*eT*eG*eG*eTe[5mC]*eA*eA*eG*eAeG*eG-{TEG}) | – | – | – | – | – | – | – | – | – | – | – | – | decrease in serum bile acid levels | increased human ABCB11 expression | without affecting mouse Abcb11 expression
